# Structures can show the parent of a compound that is named as a salt.
# Key:
# [1] = target: T1, NK1 receptor (substance P receptor) (Homo sapiens, UniProt P25103); assay: NK1 receptor affinity, displacement of 125I-labelled substance P on IM-9 cells; type: binding; settings: human lymphoblastoma cells (IM-9) with cloned NK1 receptors
# T1 construct: expressed in transfected cells; host or cells: human lymphoblastoma cells (IM-9)
# Method: Results of investigations into the compound according to the invention: The receptor affinity for the NK1 receptor (substance P receptor) is determined on human lymphoblastoma cells (IM-9) with cloned NK1 receptors, by measuring the displacement of ^125I-labelled substance P. The Ki values thus obtained show the efficacy of the compounds.
# T1 sequence (P25103 whole entry): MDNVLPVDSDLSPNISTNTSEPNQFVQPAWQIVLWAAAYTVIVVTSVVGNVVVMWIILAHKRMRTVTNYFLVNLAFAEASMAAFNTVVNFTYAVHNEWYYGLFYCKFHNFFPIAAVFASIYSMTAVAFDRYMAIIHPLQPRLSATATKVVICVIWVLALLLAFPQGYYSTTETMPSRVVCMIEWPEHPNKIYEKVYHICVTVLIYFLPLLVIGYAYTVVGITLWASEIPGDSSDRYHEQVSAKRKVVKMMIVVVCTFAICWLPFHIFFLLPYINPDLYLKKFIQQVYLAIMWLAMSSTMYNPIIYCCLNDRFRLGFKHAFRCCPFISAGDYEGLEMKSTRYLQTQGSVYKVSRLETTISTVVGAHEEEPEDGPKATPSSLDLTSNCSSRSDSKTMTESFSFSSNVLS
Structure (SMILES),Ki [1],melting point
CN(CCc1cc(C(F)(F)F)cc(C(F)(F)F)c1)C(=O)C(c1ccccc1)N1CCN(/C(=N\C2CCCCC2)N(C)C2CCCCC2)CC1 (centres unmarked) [Example 6],0.88 nM,
CN(CCc1cc(C(F)(F)F)cc(C(F)(F)F)c1)C(=O)C(c1ccccc1)N1CCN(C(=N)N2CCOCC2)CC1 (centres unmarked) [Example 30],0.17 nM,
CN(CCc1cc(C(F)(F)F)cc(C(F)(F)F)c1)C(=O)[C@H](c1ccccc1)N1CCN(/C(=N/C(=O)c2ccccc2)N(C)C)CC1.Cl [Example 27],1.11 nM,124 to 128 °C
CC(C)N/C(=N\C(=O)c1ccccc1)N1CCN(C(C(=O)N(C)CCc2cc(C(F)(F)F)cc(C(F)(F)F)c2)c2ccccc2)CC1 (centres unmarked) [Example 31],8.96 nM,
CC(C)NC(=N)N1CCN(C(C(=O)N(C)CCc2cc(C(F)(F)F)cc(C(F)(F)F)c2)c2ccccc2)CC1 (centres unmarked) [Example 32],0.2 nM,
"CN(CCc1cc(C(F)(F)F)cc(C(F)(F)F)c1)C(=O)C(c1ccccc1)N1CCN(C(=N)N)CC1 (racemic) (as salt: hydrochloride) [Example 1, (R,S)-1-Amidino-4-[2-phenylacetic acid-N-methyl-N-(3,5-bis-trifluoromethyl-phenyl-ethyl)-amide]-piperazine, dihydrochloride]",,128 to 138 °C
CN(CC(c1ccc(Cl)c(Cl)c1)N1CCN(C(=N)N)CC1)C(=O)Cc1cc(C(F)(F)F)cc(C(F)(F)F)c1 (centres unmarked) [Example 35],0.78 nM,
CCN/C(=N/C(C)(C)C)N1CCN(C(C(=O)N(C)CCc2cc(C(F)(F)F)cc(C(F)(F)F)c2)c2ccccc2)CC1 (centres unmarked) [Example 5],6.28 nM,174 to 184 °C (dec.)
"CN(CCc1cc(C(F)(F)F)cc(C(F)(F)F)c1)C(=O)C(c1ccccc1)N1CCN(C(=N)N)CC1 (racemic) [Example 1, (R,S)-1-Amidino-4-[2-phenylacetic acid-N-methyl-N-(3,5-bis-trifluoromethyl-phenyl-ethyl)-amide]-piperazine, dihydrochloride]",0.45 nM,
CN(CCc1cc(C(F)(F)F)cc(C(F)(F)F)c1)C(=O)C(c1ccccc1)N1CCN(/C(N)=N/Cc2ccccc2)CC1 (centres unmarked) [Example 34],0.37 nM,
Cc1ccc(/N=C(\Nc2ccc(C)cc2)N2CCN(C(C(=O)N(C)CCc3cc(C(F)(F)F)cc(C(F)(F)F)c3)c3ccccc3)CC2)cc1 (centres unmarked) [Example 28],4.16 nM,
CN(CCc1cc(C(F)(F)F)cc(C(F)(F)F)c1)C(=O)[C@H](c1ccccc1)N1CCN(C2=NCCN2C)CC1 [Example 8],0.19 nM,
CN(CCc1cc(C(F)(F)F)cc(C(F)(F)F)c1)C(=O)C(c1ccccc1)N1CCN(C2=NCCN2)CC1 (centres unmarked) [Example 2],0.3 nM,163 to 173 °C
CN(CCc1cc(C(F)(F)F)cc(C(F)(F)F)c1)C(=O)C(c1ccccc1)N1CCN(/C(=N/C(=O)c2ccccc2)NCc2ccccc2)CC1 (centres unmarked) [Example 33],13.2 nM,
CN(CCc1cc(C(F)(F)F)cc(C(F)(F)F)c1)C(=O)C(c1ccccc1)N1CCN(C(=N)Nc2ccccc2)CC1 (centres unmarked) [Example 12],0.32 nM,240 to 245 °C (dec.)
CN(CCc1cc(C(F)(F)F)cc(C(F)(F)F)c1)C(=O)[C@H](c1ccccc1)N1CCN(/C(=N/C(=O)c2ccccc2)Nc2ccccc2)CC1 [Example 29],0.87 nM,
C/N=C(\NC)N1CCN(C(C(=O)N(C)CCc2cc(C(F)(F)F)cc(C(F)(F)F)c2)c2ccccc2)CC1 (centres unmarked) [Example 9],0.14 nM,126 to 140 °C
CC(C)/N=C(/NC(C)C)N1CCN(C(C(=O)N(C)CCc2cc(C(F)(F)F)cc(C(F)(F)F)c2)c2ccccc2)CC1 (racemic) [Example 4],0.53 nM,176 to 186 °C (dec.)
CN(CCc1cc(C(F)(F)F)cc(C(F)(F)F)c1)C(=O)C(c1ccccc1)N1CCN(/C(=N\C2CCCCC2)NC2CCCCC2)CC1 (centres unmarked) [Example 7],1.45 nM,182 to 188 °C (dec.)
CNC(=N)N1CCN(C(C(=O)N(C)CCc2cc(C(F)(F)F)cc(C(F)(F)F)c2)c2ccccc2)CC1 (centres unmarked) [Example 3],0.2 nM,69 to 79 °C
CN(C)C(=N)N1CCN(C(C(=O)N(C)CCc2cc(C(F)(F)F)cc(C(F)(F)F)c2)c2ccccc2)CC1 (centres unmarked) [Example 10],0.12 nM,
